In US20110092517A1, “Use of PPAR Delta Ligands for the Treatment or Prevention of Inflammation or Energy Metabolism/Production Related Diseases” (Cerenis Therapeutics S.A. & Nippon Chemiphar Co., Ltd., priority 2009, published 2011):
“Also recorded” adds a separate entry of the source. Where two headings read alike, the source gives them in different places.

Columns and labels:
rat PPARα = molecular target: T1, rat PPARα (Rattus norvegicus, UniProt P37230); experiment: GAL4-PPAR chimera transactivation assay in CV-1 cells at 10% or 0.1% serum (Example 4); format: cell-based; conditions: read-out: GAL4-chimera (rat) EC50 (μM) hPPARα
T1 construct: expressed in transfected cells; host or cells: CV-1
T1 sequence (P37230 239-466 limits assumed): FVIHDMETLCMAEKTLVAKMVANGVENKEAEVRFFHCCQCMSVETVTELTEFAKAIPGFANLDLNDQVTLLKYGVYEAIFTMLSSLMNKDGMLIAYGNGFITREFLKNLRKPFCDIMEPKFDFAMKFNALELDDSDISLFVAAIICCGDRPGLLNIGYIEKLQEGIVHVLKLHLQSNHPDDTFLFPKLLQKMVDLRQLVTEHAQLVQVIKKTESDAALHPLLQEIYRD

rat PPARδ = molecular target: T2, rat PPARδ (Rattus norvegicus, UniProt Q62879); experiment: as above; format: cell-based; conditions: read-out: GAL4-chimera (rat) EC50 (μM) hPPARδ
T2 construct: expressed in transfected cells; host or cells: CV-1
T2 sequence (Q62879 139-440 limits assumed): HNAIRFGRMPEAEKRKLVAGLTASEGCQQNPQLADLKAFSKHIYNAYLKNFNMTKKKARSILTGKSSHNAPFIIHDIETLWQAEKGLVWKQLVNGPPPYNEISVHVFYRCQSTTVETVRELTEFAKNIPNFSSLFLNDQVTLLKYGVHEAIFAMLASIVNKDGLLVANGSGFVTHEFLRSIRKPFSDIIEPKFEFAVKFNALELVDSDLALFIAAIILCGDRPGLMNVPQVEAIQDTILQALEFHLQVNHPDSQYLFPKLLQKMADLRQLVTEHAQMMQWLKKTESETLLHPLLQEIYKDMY
Method: Assays were performed in triplicate for GAL4-chimeras. Experiments were repeated at least three times.
The EC50 were calculated as previously described.
The transactivation activities of the compound I.1 and GW501516 are measured in rat and mouse transactivation assays at 10% and 0.1% serum (Tables 11 and 12).

[1] = Body weight follow-up during treatment in rats fed a high fat/medium fructose diet (WD); format: in vivo, rat; conditions: oral once daily, pioglitazone 10, metformin 50, GW501516 10, compound I.1 10 mg/kg (alone or +metformin 50 mg/kg)
Description: The first set of rats was undergoing an OGTT after 3 weeks of treatment (half rats/group of the clamp arm) and the second set was also undergoing an OGTT after 3 weeks of treatment (half rats/group of clamp arm) and the Histology study (3 rats/group). […] Homogenous mild obese and insulin resistant rats were allocated into the different treatment groups and western diet was continued until the end of the experiment. Given that, the 2 series started with a gap of one week Dosage regimen: Rats were treated once daily via the oral route, in the morning. The duration of the treatment was between 5 and 5.5 weeks. […], 10 mg/Kg (n=12) […] The second set of rats was weighted at 8:30 on days 17 and 21, at 1:45 pm on day 24 and at 11:10 am on day 28.

[2] = Plasma biochemistry after 17 days of treatment in WD fed rats (glycemia, insulin, HOMA-IR, adiponectin, FFA, TG); format: in vivo, rat; conditions: for Decrease of HOMA-IR / Decrease of plasma insulin: 4 h fasted; for Decrease of HOMA-IR: pioglitazone 10, metformin 50, GW501516 10, compound I.1 10 mg/kg; for Decrease of plasma insulin: pioglitazone 10, metformin 50, GW501516 10, compound I.1 10 mg/kg +metformin 50 mg/kg; for Plasma adiponectin levels: pioglitazone 10, metformin 50, GW501516 10, compound I.1 3 and 10 mg/kg
[3] = Oral glucose tolerance test after 3 weeks of treatment in WD fed rats; format: in vivo, rat; conditions: 6 h fasted, oral glucose 2.5 g/kg after 3 weeks, pioglitazone 10, metformin 50, GW501516 10, compound I.1 10 mg/kg
[4] = Euglycemic-hyperinsulinemic 2 steps clamp with 3H-glucose after 5 weeks of treatment in WD fed rats; format: in vivo, rat; conditions: for Increase of glycolysis: metformin 50, GW501516 10, compound I.1 10 mg/kg (alone or +metformin 50 mg/kg); for Increase of GIR (glucose infusion rate) during the first step / Decrease of HGP (hepatic glucose production): clamp 0.2 U/kg/h insulin, pioglitazone 10, metformin 50, compound I.1 10 mg/kg +metformin 50 mg/kg
Method: After 4 weeks of treatment, a catheter was implanted into the femoral vein under isoflurane anaesthesia and a period of 5-6 days was respected for recovery. […] The morning of the clamp procedure, rats were treated and fasted for 6 hours prior to tracer, glucose and insulin infusions. The beginning of the clamp procedure was performed in the middle of the dark cycle.
The euglycemic hyperinsulinemic 2 steps insulin clamp was performed using 0.2 U/kg/h and 0.8 U/kg/h insulin infusion associated with 3H-glucose infusion. We then assessed:
During the clamp procedure, a bolus (30 μCi) of D-[3-3H]glucose was first injected followed by 4 μCi/min/kg infusion rate during all the experiment to ensure a detectable plasma D[3-3H]glucose enrichment. A bolus of insulin (100 mU) was first injected, and insulin was then infused at a rate of 0.2 U/kg/h for the first 2 hours and 0.8 U/kg/h from 120 minutes to 210 minutes.
Throughout the infusion, glycaemia was assessed with a blood glucose meter from the tip of the tail vein when needed. Euglycemia was maintained by periodically (every 10 minutes) adjusting a variable infusion of 30% glucose. Plasma glucose concentrations and D-[3-3H]glucose specific activity were determined during stable phase in 10 μl of blood sampled from the tip of the tail vein every 20 minutes from 60 to 120 minutes during the first step and from 150 to 210 minutes during the second step.
For glucose turnover measurements, D-[3-3H]glucose enrichments were determined from total blood after deproteinization by a Zn(OH)2 precipitate. Briefly, an aliquot of the supernatant was evaporated to dryness to determine the radioactivity corresponding to D-3-3H. In a second aliquot of the same supernatant, glucose concentration was assessed by the glucose oxidase method (Biomérieux, France).
Calculations for glucose turnover measurements were made from parameters obtained during the infusions in steady-state condition ([…]). Briefly, the D-[3-3H]glucose specific activity was calculated by dividing the D-[3-3H]glucose enrichment by the plasma glucose concentration. The whole body glucose turnover rate was calculated by dividing the rate of D[3-3H]glucose by the D-[3-3H]glucose plasma specific activity. For each rat, the mean values were calculated and averaged with values from rats of the same group. The whole body glycolysis rate was measured by assessing the amount of tritiated water accumulated in the blood during the 3H-glucose infusion and the whole body glycogen synthesis rate was calculated by the difference between the whole body glucose turnover and the whole body glycolysis rate.

[5] = Liver and adipose tissue weights after 5 weeks of treatment in WD fed rats; format: in vivo, rat; conditions: for Decrease of liver weight: non significant, pioglitazone 10, GW501516 10 mg/kg
Method: (§1) At the end of the clamp procedure (9.5 hours fasting), perirenal, retroperitoneal, epididymal and inguinal fat pads and liver weights were recorded. Blood was collected from cardiac puncture and plasmas were stored at −80° C. for further assays if needed (depending on the radioactive state of samples). Liver triglyceride content was assessed (enzymatic-colorimetric method) as well as liver and adipose tissue TNF-α content (ELISA method).

[6] = Triglycerides content in the liver after 5 weeks of treatment in WD fed rats (enzymatic-colorimetric method); format: in vivo, rat; conditions: pioglitazone 10, GW501516 10, compound I.1 at any used dose
Method: as §1

TNF-α = TNF-α content in liver and epididymal white adipose tissue after 5 weeks of treatment in WD fed rats (ELISA); format: in vivo, rat; conditions: for Decrease of TNF-α levels in epididymal white adipose tissues: metformin 50, GW501516 10, compound I.1 10 mg/kg (alone or +metformin 50 mg/kg)
Method: as §1

[7] = tested on: TNF-alpha-activated HUVECs; conditions: under physiological flow; cited from earlier work

Cc1cc(SCc2sc(-c3ccc(C(F)(F)F)cc3)nc2C)ccc1OCC(=O)O [GW-501516]
EC50 (rat PPARα; 0.1% serum): 1.96 ± 0.7 µM | EC50 (rat PPARα; 10% serum): > 10 µM | EC50 (rat PPARδ; 0.1% serum): 0.072 ± 0.025 µM | EC50 (rat PPARδ; 10% serum): 0.427 ± 0.29 µM | Body weight / body weight gain during treatment [1]: slightly decreased body weight the first week of treatment but not in a significant manner; also recorded: significant after 4 weeks of treatment | Decrease of HOMA-IR [2]: ~25% | Decrease of plasma insulin [2]: 21% | Increase of plasma TG ([2]; GW501516 10 mg/kg, compound I.1 10 mg/kg +metformin 50 mg/kg): 84% | Plasma adiponectin levels [2]: prevented the decrease | Glucose tolerance (OGTT, AUC, glycemia variation) [3]: strong tendency to improved glucose tolerance | Increase of glycolysis ([4]; clamp 0.8 U/kg/h insulin): 21% | Decrease of liver weight [5]: 8% | Triglycerides content in the liver [6]: tended to decrease; also recorded: did not significantly decrease | TNF-α content in the liver (TNF-α; compound I.1 10 mg/kg +metformin 50 mg/kg, GW501516 10 mg/kg, other groups): tended to decreased | Decrease of TNF-α levels in epididymal white adipose tissues (TNF-α): 60% | Decrease of TNF-α level in the liver (TNF-α; tendency, compound I.1 10 mg/kg +metformin 50 mg/kg, GW501516 10 mg/kg): 12% | Rolling and adhesion of hPMNs on TNF-alpha-activated HUVECs [7]: inhibited markedly

CN(C)C(=N)N=C(N)N [metformin]
Body weight / body weight gain during treatment [1]: decreased | Body weight / body weight gain during treatment ([1]; listed as Metformin): significantly decreased body weight after 2 weeks of treatment | Decrease of HOMA-IR [2]: ~50% | Decrease of plasma insulin [2]: 44% | Plasma adiponectin levels [2]: did not prevent a decrease | Insulin resistance / insulin sensitizing effect (overall) ([4]; WD fed rats, after 5 weeks, compound I.1 dose not specified (3 and 10 mg/kg groups), pioglitazone 10, metformin 50 mg/kg): insulin sensitizing effects | Whole body glucose oxidation ([4]; WD fed rats, clamp after 5 weeks, metformin 50 mg/kg, compound I.1 dose not specified, alone or associated): tended to increase | Increase of GIR (glucose infusion rate) during the first step ([4]; after 5 weeks): 112% | Decrease of HGP (hepatic glucose production) [4]: 40% | GIR during the second step ([4]; clamp 0.8 U/kg/h insulin, after 5 weeks, pioglitazone 10, metformin 50 mg/kg, other groups): tended to increase GIR (not significantly) | Increase of glycolysis ([4]; clamp 0.8 U/kg/h insulin): 20% | Decrease of perirenal white adipose tissue ([5]; tendency, metformin 50 mg/kg alone or with compound I.1 10 mg/kg): 27% | Decrease of TNF-α levels in epididymal white adipose tissues (TNF-α): 25%

CCc1ccc(CCOc2ccc(CC3SC(=O)NC3=O)cc2)nc1 (centres unmarked) [pioglitazone]
Decrease of HOMA-IR [2]: ~50% | Decrease of plasma insulin [2]: 39% | Increase of GIR (glucose infusion rate) during the first step ([4]; after 5 weeks): 138% | Decrease of HGP (hepatic glucose production) [4]: 47% | Decrease of liver weight [5]: 12%
